Laboratory results taken from ChEMBL document CHEMBL1158004, “New alkaloids from the indopacific sponge Stylissa carteri” (J Nat Prod, 1999).
≈ marks a conversion by molar mass, not a printed value.

Experiment: Cytotoxicity against human MONO-MAC 6 cells assessed as [3H]thymidine incorporation after 48 hrs
Assay type: functional, cell-based

SMILES | IC50 [µg/mL]
NC1=N/C(=C2/CCNC(=O)c3[nH]ccc32)C(=O)N1 [DEBROMOHYMENIALDISINE] | 2.4 (≈ 9.79 µM)
NC1=NC(=O)/C(=C2\CCNC(=O)c3[nH]c(Br)cc32)N1 [HYMENIALDISINE] | 0.2 (≈ 0.617 µM)
